Reference: PMC11994961, “In Vivo pharmacokinetic interactions of ribociclib with rivaroxaban and apixaban in rats: implications for increased drug exposure and dose adjustments” (Frontiers in Pharmacology, 2025)
Like-named read-outs stand apart in the source and are kept apart here.

Experiments:
[1] = parameters: method as in Samant et al., 2020; details: ref Samant et al., 2020, cited from earlier work
[2] = Pharmacokinetic study of rivaroxaban in rats, alone and with ribociclib (UPLC-MS/MS plasma levels); format: in vivo, Sprague-Dawley rats; details: for CL/F: read-out: CLz/F (converted); for MRT inf: read-out: MRT0- ∞; for MRT last: read-out: MRT0-t; for Vd/F: read-out: Vz/F
Protocol: Experimental animals were randomly divided into nine groups (n = 6, Table 1). Ribociclib was suspended in methylcellulose (MC), rivaroxaban was prepared in hydroxypropyl methylcellulose (HPMC), and apixaban was suspended in 5% DMSO in water. To achieve steady-state blood concentrations, a drug typically requires five to seven half-lives. Based on this principle, ribociclib was administered orally for eight consecutive days, while rivaroxaban and apixaban were administered orally for five consecutive days to ensure steady-state concentrations were reached before further analysis.
Approximately 0.1 mL of blood was collected into heparinized tubes via the orbitalat specified time points before and after the final drug administration. For apixaban, blood samples were collected at 0, 0.083, 0.167, 0.25, 0.333, 0.5, 0.75, 1, 3, 5, 7, 10, and 12 h. For rivaroxaban, sampling was conducted at 0, 0.167, 0.333, 0.5, 0.75, 1.5, 2, 3, 4, 5, 6, 8, 10, 12, and 24 h. For ribociclib, samples were taken at 0, 0.5, 1, 2, 4, 5, 6, 8, 10, 12, 24, and 48 h. Blood samples were centrifuged at 3,500 rpm for 10 min, and the supernatant was collected and stored at −80°C until processing for UPLC-MS/MS.
Apixaban and rivaroxaban concentrations in plasma samples were determined using our previously established UPLC-MS/MS method ([Wang et al., 2023]). Ribociclib concentrations were quantified using an LC-30A UPLC system (Shimadzu, Kyoto, Japan) coupled with a Sciex Triple Quad 5500 tandem quadrupole mass spectrometer (AB Sciex, Framingham, MA, United States) equipped with an electrospray ionization interface. Chromatographic separation was performed using a Welch Boltimate column (2.1 mm × 100 mm, 2.7 μm) maintained at 40°C. The mobile phase was composed of water containing 0.1% formic acid (phase A) and acetonitrile (phase B). The flow rate was held constant at 0.3 mL/min. The gradient elution protocol was as follows: 0–2.5 min, 60% B; 2.5–3.5 min, 60%–90% B; 3.5–5.5 min, 90% B; 5.5–5.6 min, 90%–60% B; 5.6–6.6 min, 60% B. The injection volume was 1 μL.
Pharmacokinetic parameters were calculated based on a non-compartmental model using DAS 2.1.1 Software (Mathematical Pharmacology Professional Committee of China, Shanghai, China). The area under the concentration–time curve (AUC), maximum plasma concentration (Cmax), time to maximum plasma concentration (Tmax), the time required to eliminate half of the plasma drug concentration (t1/2), clearance of drug plasma volume per unit time (CLz/F), apparent volume distribution (Vz/F), mean residence time (MRT) and the absorption rate constant (Ka) are all expressed as mean ± standard deviation (SD). SPSS 25.0 statistical software (SPSS Inc., Chicago, IL, United States) was applied to statistically analyze the mainpharmacokinetic parameters. Shapiro-Wilk test was used to assess whether the data were normally distributed, t test was used for parameters conforming to the normal distribution, and Mann-Whitney U test was used for parameters not conforming to the normal distribution. Statistical comparisons were conducted using a analysis of variance, t-test or nonparametric rank-sum test depending on the data type. A P-value <0.05 was deemed statistically significant.

[3] = parameters: method as in Kvasnicka et al., 2017; details: ref Kvasnicka et al., 2017; cited from earlier work
[4] = parameters: method as in Wang et al., 2023; details: rats, with almonertinib; ref Wang et al., 2023; cited from earlier work
[5] = RIVA 1 mg/kg + multiple doses of RIBO vs RIVA 2 mg/kg alone
[6] = RIVA 2 mg/kg (normal dose) + multiple doses of RIBO vs alone
[7] = RIVA 2 mg/kg + timed RIBO (12 h), RIBO 60 mg/kg for 8 days
[8] = RIVA 2 mg/kg after multiple doses of RIBO vs RIVA 2 mg/kg alone
[9] = RIVA 2 mg/kg with 12-h interval to RIBO vs RIVA 2 mg/kg alone
[10] = Sprague-Dawley, rat, plasma, po, 1 mg/kg, RIVA 1 mg/kg + RIBO 60 mg/kg for 8 days
[11] = Sprague-Dawley, rat, plasma, po, 2 mg/kg, RIVA 2 mg/kg + RIBO 60 mg/kg for 8 days
[12] = Sprague-Dawley, rat, plasma, po, 2 mg/kg, RIVA 2 mg/kg + timed RIBO (12 h), RIBO 60 mg/kg for 8 days
[13] = Sprague-Dawley, rat, plasma, po, 2 mg/kg, oral RIVA 2 mg/kg alone

CN(C)C(=O)c1cc2cnc(Nc3ccc(N4CCNCC4)cn3)nc2n1C1CCCC1 [RIBO, ribociclib]
reduction of AUC ([1]; with rifampicin, a strong CYP3A inducer): 89% | increase of AUC ([1]; with ritonavir, a strong CYP3A inhibitor): 3.2 fold

O=C(NC[C@H]1CN(c2ccc(N3CCOCC3=O)cc2)C(=O)O1)c1ccc(Cl)s1 [RIVA, rivaroxaban]
decrease of CLz/F [2, 5]: 70.97% | decrease of Vz/F [2, 5]: 78.29% | difference in MRT0- ∞ [2, 5]: not statistically significant | difference in Tmax [2, 5]: not statistically significant | increase of AUC0- ∞ [2, 5]: 228.46% | increase of AUC0-t [2, 5]: 230.62% | increase of Cmax [2, 5]: 133.14% | increase of MRT0-t [2, 5]: 30.06% | increase of AUC0- ∞ [2, 6]: ~2.1 fold | increase of AUC0-t (AUC) [2, 6]: about 2.4 fold | increase of Cmax [2, 6]: 1.9 fold | Cmax ([2]; RIVA 2 mg/kg + RIBO 60 mg/kg for 8 days): 838.33 ± 480.92 ng/mL | AUC0- ∞ [2, 7]: 2,217.15 ± 800.81 μg/L*h | Cmax [2, 7]: 454.5 ± 214.88 ng/mL | Vz/F [2, 7]: 3.72 ± 1.98 L/kg | t1/2 [2, 7]: 2.65 ± 1.48 h | decrease of CLz/F [2, 8]: 65.81% | decrease of Vz/F [2, 8]: 82.91% | decrease of t1/2z [2, 8]: 57.09% | difference in MRT0- ∞ [2, 8]: not statistically significant | difference in Tmax [2, 8]: not statistically significant | increase of AUC0- ∞ [2, 8]: 213.79% | increase of AUC0-t [2, 8]: 240.19% | increase of Cmax [2, 8]: 186.93% | increase of MRT0-t [2, 8]: 21.39% | decrease of CLz/F [2, 9]: 34.84% | decrease of Vz/F [2, 9]: 62.61% | difference in Cmax [2, 9]: not statistically significant | difference in MRT0- ∞ [2, 9]: not statistically significant | difference in Tmax [2, 9]: not statistically significant | increase of AUC0- ∞ [2, 9]: 63.03% | increase of AUC0-t [2, 9]: 74.16% | increase of MRT0-t [2, 9]: 22.54% | Cmax ([2]; Sprague-Dawley, rat, plasma, oral RIVA 2 mg/kg alone, read-out: Cmax): 292 ± 67.5 ng/mL | AUC(0-inf) [2, 10]: 4470 ng·h/mL | AUC(0-t) [2, 10]: 3990 ± 445 ng·h/mL | Tmax [2, 10]: 1.92 ± 0.2 h | half-life [2, 10]: 3.34 ± 0.79 h | CL/F [2, 10]: 7.5 mL/min/kg | MRT inf [2, 10]: 5.84 ± 0.81 h | MRT last [2, 10]: 4.5 ± 0.25 h | Vd/F [2, 10]: 2.16 ± 0.04 L/kg | AUC(0-inf) [2, 11]: 4270 ng·h/mL | AUC(0-t) [2, 11]: 4100 ng·h/mL | Tmax [2, 11]: 2.83 ± 0.41 h | half-life [2, 11]: 2.15 ± 0.94 h | CL/F [2, 11]: 8.83 mL/min/kg | MRT inf [2, 11]: 4.74 ± 0.63 h | MRT last [2, 11]: 4.2 ± 0.63 h | Vd/F [2, 11]: 1.7 ± 0.99 L/kg | AUC(0-t) [2, 12]: 2100 ng·h/mL | Tmax [2, 12]: 3 ± 0.63 h | CL/F [2, 12]: 16.8 mL/min/kg | MRT inf [2, 12]: 4.93 ± 1.3 h | MRT last [2, 12]: 4.24 ± 0.69 h | AUC(0-inf) [2, 13]: 1360 ng·h/mL | AUC(0-t) [2, 13]: 1210 ng·h/mL | Tmax [2, 13]: 2.13 ± 0.83 h | half-life [2, 13]: 5.01 ± 3.3 h | CL/F [2, 13]: 25.8 mL/min/kg | MRT last [2, 13]: 3.46 ± 0.43 h | Vd/F [2, 13]: 9.95 ± 4.58 L/kg | Cmax ([2]; Sprague-Dawley, rat, plasma, po, RIVA 1 mg/kg + RIBO 60 mg/kg for 8 days, read-out: Cmax): 681 ± 75.5 ng/mL | AUC at 1 mg/kg versus AUC at 2 mg/kg ([2]; both with multiple doses of RIBO): not significantly different | MRT0- ∞ ([2]; oral RIVA 2 mg/kg alone): 5.31 ± 2.01 h | increase of Cmax ([2]; reduced RIVA 1 mg/kg + multiple doses of RIBO): 1.3 fold | time to maximum plasma concentration (Cmax) after administration [3]: 2 to 4 h | increase in AUC [4]: over three fold increases | increase in Cmax [4]: over three fold increases
